Reference: patent US12286423B2, “Antiviral 1,3-di-oxo-indene compounds” (Novartis AG, priority 2020, dated 2025)

What was measured:
Format in all cases: cell-based
HRV B14 = HRV B14 CPE inhibition assay; conditions: Human rhinovirus sp.; HRV B14, cytopathic effect inhibition
Method: (§1) Bioactivity of the Compounds of the Invention was Determined Using the Following Methods. Determination of Drug Efficacy Against Picornaviruses Using Cytopathic Effect (CPE) Inhibition Assay
(§2) In the assay, HeLa (human cervical cancer cells), MRC-5 (human fetal lung fibroblast cells), and RD cells (derived from human rhabdomyosarcoma) were employed. For comparison, ribavirin (Riv), Pleconaril (pleco), and […] (BTA) were used as controls. Reagents were dissolved at a concentration of 10-40 mg/ml in 100% dimethyl sulfoxide (DMSO). Water-soluble reagents were dissolved in PBS (−) solution and stored at −20° C. On the day of the experiment, they were used in 3 fold to 5 fold concentrations in such a manner that the concentration of dimethyl sulfoxide in each well was between 0.5% and 1%.
(§3) Pharmaceutical efficacy was determined using a virus-induced cytopathic effect (CPE) inhibition assay. In this regard, after cells suitable for viruses were grown in 96-well plates, dilutions of viruses in DME supplemented with 2% FBS (DME/2% FBS) or MEM supplemented with 2% FBS (MEM/2% FBS) were inoculated in an amount of […] with a concentration corresponding to 100 CCID50 (50% cell culture infective dose) into each well of the plates, and incubated for 30 min-1 hr at 33° C. or 37° C. to allow the viruses to adsorb onto the cells. The culture medium was removed before aliquots of drug dilutions with various concentrations were added in an amount of 100 μl to each well. While HRV (human rhinovirus) was grown at 33° C., the other viruses were incubated in a 37° C. CO2 incubator for 2-3 days. Alternatively, the cells were cultured for 2-3 days without removal of the medium after they were added with 50 μl of each drug dilution having a 2-fold higher concentration and then with 50 μl of the virus dilution. Viruses were incubated in host HeLa cells at 37° C. for 2-3 days in DME/2% or MEM/2% FBS.
(§4) For HeLa cells, the drugs were measured for EC50 (50% maximal effective concentration), which is the concentration of a drug inducing a response halfway between the baseline and maximum, using an MTT assay. With regard to RD and MRC-5 cells, CPE was determined using FDA (Fluorescein diacetate) or MTT. In order to determine the effect of drug toxicity on efficacy results, at the time of inoculation with the virus, mock-infection was also included. A virus-free medium was added to a cell culture, which was then subjected to the same treatment as the mock-infected cells inoculated with the virus. That is, the medium was removed after one hour of incubation, and dilutions of drugs in the medium were added once more. Following incubation for 2-3 days, the cells were observed under a microscope and the drugs were determined for CC50 (50% cytotoxic concentration) at which 50% of the cells were killed, using an MTT assay in which counts of viable cells in mock-infected wells containing drugs were compared to those of viable cells in control wells containing no drugs. In an FDA hydrolysis assay, FDA was added to each well after removal of the medium, and incubated for 20-30 min before fluorescence intensity was measured using a spectrofluorometer to determine CPE in the same manner as in MTT.
(§5) In addition, antiviral effects can be calculated using Mathematical Formula 2 below: Antiviral Effect=[A(Drug/Virus)−A(Virus Control)/A(Cell control)−A(Virus Control)]
(§6) If the survival rate is 100%, its antiviral effect is 100% whereas if the survival rate is 0%, its antiviral effect is none. […]
(§7) Specifically, cells grown to confluence in 96-well plates were infected with 100 50% cell culture infected doses (CCID50) of virus. After an adsorption period of 2 hrs at 37° C., the virus was removed and serial dilutions of the compounds were added. […] After removal of the medium, 90 μl of a culture medium and 10 μl of MTS-phenazine methosulfate (Promega, Leiden, The Netherlands) were added to each well. […]

C15_C3 REPLICON = assay: C15_C3 replicon assay
HRV A16 = HRV A16 CPE inhibition assay; conditions: Human rhinovirus sp.; HRV A16, cytopathic effect inhibition
Method: as §1, §2, §3, §4, §5, §6, §7

[1] = Cytotoxicity (CC50) in mock-infected cells, MTT assay; conditions: human, HeLa cells (mock-infected), 50% cytotoxic concentration, read-out: CYTOTOX (CC50 μM)
Method: as §4
That is, the survival rate (% survival) of mock-infected cells for cytotoxicity measurement was calculated using the Mathematical Formula 1 below: Cell Drug=Survival by [A(Drug)−A(Background solution)/A(Cell control)−A(Background×100% Solution)]
While 100% cell survival means no cytotoxicity of the drug, the highest cytotoxicity is reflected by 0% cell survival. The 50% cytotoxic concentration was defined as the concentration required to reduce the cell number by 50%. This concentration of the drug is represented as CC50. Higher values mean lower cytotoxicity. […]
In Mathematical Formulae 3 and 4 above, • OD (CC) represents the OD of the background cell culture that is neither induced by a virus nor treated by chemical, • OD (VC) represents the OD of the control cell culture that is induced by a virus but not treated by chemical, • OD (Virus+Compound) represents the OD of the cell culture infected by a virus that has been treated with a concentrated compound, • OD (Compound) represents the OD of the cell culture that has been treated with a concentrated compound only, and • OD (Blank) represents the OD of the well to which only the cell culture has been added.
The effective concentration (EC50) represents the concentration of a drug at which 50% of cells are allowed to survive by CPE of an induced virus, and the cytotoxicity concentration (CC50) represents the concentration of a drug at which a compound has killed 50% of cells, and they were calculated by the logarithmic interpolation.

HRV A29 = HRV A29 CPE inhibition assay; conditions: Human rhinovirus sp.; HRV A29, cytopathic effect inhibition
Method: as §1, §2, §3, §4, §5, §6, §7

HRV A1B = HRV A1B CPE inhibition assay; conditions: Human rhinovirus sp., cytopathic effect inhibition, read-out: HRV A1B_CPE (EC50 μM)
Method: as §1, §2, §3, §4, §5, §6, §7

Row | SMILES | EC50 (HRV B14) [µM] | EC50 (C15_C3 REPLICON) [µM] | EC50 (HRV A16) [µM] | CC50 [1] [µM] | EC50 (HRV A29) [µM] | EC50 (HRV A1B) [µM]
1 | Cc1cc(S(=O)(=O)N2CC[C@H](N(C)C)C2)[nH]c1C(=O)NC12C(=O)c3c(N)cccc3C1(O)Oc1cc([C@H]3C[C@@H]3C)ccc12 (mixture of isomers) [Example 11, N-(1-amino-4b-hydroxy-7-((1S,2S)-2-methylcyclopropyl)-10-oxo-4b,10-dihydro-9bH-indeno[1,2-b]benzofuran-9b-yl)-5-(((S)-3-(dimethylamino)pyrrolidin-1-yl)sulfonyl)-3-methyl-1H-pyrrole-2-carboxamide] | 0.016 | 2.54 | 0.023 | 12.1 | – | –
2 | Cc1cc(S(=O)(=O)N2CCN(C)CC2)[nH]c1C(=O)NC12C(=O)c3c(N)cccc3C1(O)Oc1cc([C@H]3C[C@@H]3C)ccc12 (mixture of isomers) [Example 9, N-(1-Amino-4b-hydroxy-7-((trans)-2-methylcyclopropyl)-10-oxo-4b,10-dihydro-9bH-indeno[1,2-b]benzofuran-9b-yl)-3-methyl-5-((4-methylpiperazin-1-yl)sulfonyl)-1H-pyrrole-2-carboxamide] | 0.016 | 1.09 | 0.02 | 25.6 | – | –
3 | Cc1cc(S(=O)(=O)N2CCN(C)CC2)[nH]c1C(=O)N[C@]12C(=O)c3c(N)cccc3[C@@]1(O)Oc1cc(OC(C)C)ccc12 (single isomer, unassigned) [Example 19] | – | 0.876 | 0.022 | 48.3 | 0.046 | 0.016
4 | Cc1c(S(C)(=O)=O)c[nH]c1C(=O)N[C@]12C(=O)c3c(N)cccc3[C@@]1(O)Oc1cc([C@@H]3C[C@H]3C)ccc12 [Example 1, N-((4bR,9bR)-1-amino-4b-hydroxy-7-((1R,2R)-2-methylcyclopropyl)-10-oxo-4b,10-dihydro-9bH-indeno[1,2-b]benzofuran-9b-yl)-3-methyl-4-(methylsulfonyl)-1H-pyrrole-2-carboxamide] | 0.016 | 4 | 0.228 | 34.7 | 0.071 | –
5 | C[C@@H]1C[C@@H]1c1ccc2c(c1)O[C@]1(O)c3cccc(N)c3C(=O)[C@]21NC(=O)CN1CCC1 [Example 2, N-((4bR,9bR)-1-amino-4b-hydroxy-7-((1S,2R)-2-methylcyclopropyl)-10-oxo-4b,10-dihydro-9bH-indeno[1,2-b]benzofuran-9b-yl)-2-(azetidin-1-yl)acetamide] | 0.016 | 0.853 | 0.092 | 27.3 | – | –
6 | Cc1c(C(=O)NC23C(=O)c4c(N)cccc4C2(O)Oc2cc(C(C)C)ccc23)[nH]c(S(=O)(=O)NCCN(C)C)c1C (stereo not drawn) [Example 4, N-(1-amino-4b-hydroxy-7-isopropyl-10-oxo-4b,10-dihydro-9bH-indeno[1,2-b]benzofuran-9b-yl)-5-(N-(2-(dimethylamino)ethyl)sulfamoyl)-3,4-dimethyl-1H-pyrrole-2-carboxamide] | 0.016 | 2.39 | 0.056 | 8.58 | – | –
7 | Cc1c(S(C)(=O)=O)c[nH]c1C(=O)NC12C(=O)c3c(N)cccc3C1(O)Oc1cc([C@]3(C)C[C@@H]3C)ccc12 (stereo partly drawn) [Example 6, N-(1-amino-7-((1R,2S)-1,2-dimethylcyclopropyl)-4b-hydroxy-10-oxo-4b,10-dihydro-9bH-indeno[1,2-b]benzofuran-9b-yl)-3-methyl-4-(methylsulfonyl)-1H-pyrrole-2-carboxamide] | 0.016 | 1.18 | 0.046 | 19.1 | – | –
8 | Cc1c(S(C)(=O)=O)c[nH]c1C(=O)NC12C(=O)c3c(N)cccc3C1(O)Oc1cc(C3CCC3C)ccc12 (stereo not drawn) [Example 7, N-(1-amino-4b-hydroxy-7-(2-methylcyclobutyl)-10-oxo-4b,10-dihydro-9bH-indeno[1,2-b]benzofuran-9b-yl)-3-methyl-4-(methylsulfonyl)-1H-pyrrole-2-carboxamide] | – | 1.62 | 0.065 | 12 | – | –
9 | C[C@H](O)[C@@H](C(=O)NC12C(=O)c3c(N)cccc3C1(O)Oc1cc([C@H](C)C3CC3)ccc12)N(C)C (stereo partly drawn) [Example 10, (2S,3S)—N-(1-amino-7-((R)-1-cyclopropylethyl)-4b-hydroxy-10-oxo-4b,10-dihydro-9bH-indeno[1,2-b]benzofuran-9b-yl)-2-(dimethylamino)-3-hydroxybutanamide] | 0.016 | 0.632 | 0.661 | 29.2 | – | –
10 | C[C@H](c1ccc2c(c1)O[C@]1(O)c3cccc(N)c3C(=O)[C@]21NC(=O)[C@H]([C@H](C)O)N(C)C)C1CC1 [Example 15, (2S,3S)—N-((4bR,9bR)-1-amino-7-((S)-1-cyclopropylethyl)-4b-hydroxy-10-oxo-4b,10-dihydro-9bH-indeno[1,2-b]benzofuran-9b-yl)-2-(dimethylamino)-3-hydroxybutanamide] | 0.016 | 0.264 | 0.213 | 45.2 | – | –
11 | Cc1c(S(C)(=O)=O)c[nH]c1C(=O)NC12C(=O)c3c(N)cccc3C1(O)Oc1cc([C@@H]3C[C@@H]3C)ccc12 (stereo partly drawn) [Example 16, N-(1-amino-4b-hydroxy-7-((1R,2S)-2-methylcyclopropyl)-10-oxo-4b,10-dihydro-9bH-indeno[1,2-b]benzofuran-9b-yl)-3-methyl-4-(methylsulfonyl)-1H-pyrrole-2-carboxamide] | 0.016 | 1.82 | 0.199 | 37.7 | 0.104 | –
12 | CCC(C)c1ccc2c(c1)OC1(O)c3cccc(N)c3C(=O)C21NC(=O)c1[nH]cc(S(C)(=O)=O)c1C (stereo not drawn) [Example 23, N-(1-amino-7-(sec-butyl)-4b-hydroxy-10-oxo-4b,10-dihydro-9bH-indeno[1,2-b]benzofuran-9b-yl)-3-methyl-4-(methylsulfonyl)-1H-pyrrole-2-carboxamide] | 0.016 | 0.633 | 0.071 | 22.4 | – | –
13 | Cc1[nH]c(C(=O)NC23C(=O)c4c(N)cccc4C2(O)Oc2cc(C(C)C)ccc23)c(C)c1S(N)(=O)=O (stereo not drawn) [Example 25, N-(1-amino-4b-hydroxy-7-isopropyl-10-oxo-4b,10-dihydro-9bH-indeno[1,2-b]benzofuran-9b-yl)-3,5-dimethyl-4-sulfamoyl-1H-pyrrole-2-carboxamide] | 0.016 | 2.04 | 0.14 | 27 | – | –
